From EP0802900B1, “ANTIARRHYTHMIC (S)-ENANTIOMERS OF METHANESULFONAMIDES” (priority 1995, dated 1996)
Read-outs that look alike come from different tables or passages of the source.

Experiments:
rabbit papillary muscle = test: Electrophysiological activity in isolated, perfused rabbit cardiac tissue (effective refractory period); design: species or system New Zealand White rabbits; settings: drug concentration of 10^-5M; for activation at 10 µM: Oryctolagus cuniculus
Protocol: According to Scheme 1, in Step I, (4-methanesulfonylamino)-γ-oxobenzenebutanoic acid (II, prepared as described in EP 164 865) is convened to the N-ethylamide (III). Standard amide forming reagents such as dicyclohexylcarbodiimide or preferably isobutyl chloroformate can be used for this purpose. In Step II the ketone of III is reduced with the chiral reagent (-)-B-chlorodiisopinocamphenylborane in tetrahydrofuran. The reaction is carried out below 0°C and preferably at -25 to -35°C. A nonaqueous work up is used to facilitate isolation of the water soluble product. The (S)-(-) enantiomer of the chiral alcohol is obtained. Purification of this alcohol by recrystallization from acetonitrile, methanol, ethanol, tert-butyl methyl ether or mixtures thereof gives IV with high enantiomeric purity. In Step III the amide of IV is reduced with sodium bis-(2-methoxyethoxy)aluminum hydride in tetrahydrofuran at 24°C. A neutral nonaqueous work up is employed to facilitate isolation of the water soluble product (V). Alkylation of V with appropriately substituted alkyl bromides (R3CH2Br) to give the compounds (I) of this invention is accomplished in Step IV. The preferred conditions for this reaction employ acetonitrile as solvent and the weakly basic sodium bicarbonate to neutralize the hydrogen bromide generated by the reaction. The reaction is usually carried out at the reflux temperature (81°C). [drawing 2] The Formula I compounds were evaluated for electrophysiological activity in an isolated, perfused rabbit cardiac tissue system. The method used was as follows:
New Zealand White rabbits of either sex (1.5-2.0 kg) were anesthetized and their hearts removed. The heart was immersed in ice cold perfusate while the right atria (RA), papillary muscles (PAP), and right ventricular muscle strips (RV) were isolated. The perfusate was continuously oxygenated with 95% oxygen and 5% carbon dioxide and contained the following in mM concentrations: NaCI 118.0; KCl 5.4; NaHCO3 25.0; MgCl2 1.2: KH2PO4 1.0; CaCl2 2.4; glucose […] and pyruvic acid 2.0. During hypoxic conditions the perfusate was exposed to a mixture of 83% nitrogen, 10% carbon dioxide and 7% oxygen. The pH during normoxia was approximately 7.4 and dropped to approximately 7.2 during hypoxic conditions.
The tissues were individually mounted on a plexiglass holder containing platinum stimulating electrodes and suspended in a 100 ml bath maintained at 30°C by a circulating heat pump. All tissues were attached by silk suture to a force-displacement transducer and a tissue-dependent preload of 500-1000 mg was applied. RA were allowed to contract spontaneously. RV and PAP were stimulated at 2X threshold with 4 msec rectangular pulses at a frequency of 1 and 3 Hz. (Effective refractory period measurements percent increment over control are ERPI and ERP3, conduction time measurements are CT1 and CT3). Between measurements those tissues were stimulated at a resting pace of 2 Hz. Each tissue served as its own baseline control and was allowed an equilibration period of two hours prior to experiments. During this period the perfusate was changed every 10-15 minutes.
Working solutions of the drugs were prepared by dissolving the drugs in distilled water and one drop of NaOH/ml to aid in dissolution (pH 9.4).
Measurements were made on each set of tissues after exposure to 10^-7, 10^-6, or 10^-5M drug for 15 minutes; and 10^-5M drug under hypoxic conditions for 15 minutes.
Automaticity (RATE), force of contraction (FOC) and threshold were measured directly on a polygraph. The ERP of cardiac tissues by definition is the longest coupling interval between the basic drive (S1) and the premature impulse (S2) that fails to propagate through the tissue. The S2 stimulus was introduced after every eighth Sl which allowed time for stabilization of refractoriness. Refractory period measurements were made via a digital timing circuit. […]

[1] = test system: methoxamine treated rabbits; test: Early after depolarizations (EAD) and polymorphic ventricular tachycardia (PVT) in methoxamine treated anesthetized rabbits; format: in vivo, New Zealand White rabbits; settings: for EAD: Magnitude of the maximum early after depolarization amplitude as a percent of the monophasic action potential amplitude (APA) / MAPD90: Maximum increase in the ventricular monophasic action potential duration from the methoxamine infusion baseline, measured at 90% repolarization / PVT: Ratio of the number of animals that developed polymorphic ventricular tachycardia to the total number of animals evaluated / QTc: Maximum increase in QTc interval from the methoxamine infusion baseline: continuous intravenous infusion over 1 hour, methoxamine 10 µg/kg/minute
Protocol: The Formula I compounds were evaluated for their ability to produce early after depolarizations (EAD) and polymorphic ventricular tachycardia (PVT) in methoxamine treated rabbits. The method used was as follows:
Male New Zealand White rabbits (2.5 - 3.5 kg,) were pretreated with subcutaneous morphine sulfate (5 mg/kg) 30 minutes prior to anesthesia. Anesthesia was induced by infusion of α-chloralose (90 - 120 mg/kg) through a marginal ear vein over a period of 20 to 30 minutes. A tracheotomy was performed and the rabbit was respirated with room air (5 - 6 cc/kg) using a small animal ventilator (Columbus Instruments, Columbus, OH). Respiration rate, and tidal volume were adjusted, and supplemental oxygen administered to maintain arterial blood gases and pH within normal physiologic ranges. Catheters were placed in a jugular vein and carotid artery for administration of drugs, and measurement of arterial blood pressure, respectively. A 4 French monophasic action potential catheter was introduced through a jugular vein for monitoring of right ventricular monophasic action potential duration which was measured at 90% repolarization (MAPD90), A lead II ECG and arterial blood pressure were monitored throughout the experiments.
All records were obtained on a multichannel recorder (Gould ES 2000, Cleveland, OH) and experiments were continuously recorded on FM magnetic tape (TEAC 501, Montebello, CA) for subsequent playback and analysis.
Following experimental preparation, the rabbits were allowed to equilibrate for 10 minutes before baseline measurements of heart rate, aortic blood pressure, and QTc interval were made. During the equilibration period, monophasic action potentials were monitored and the catheter adjusted to produce action potentials with a stable amplitude. Following baseline measurements, the α1 agonist methoxamine was infused at a rate of 10 µg/kg/minute at an infusion volume of 12.0 ml/hr. After 15 minutes of methoxamine administration, intravenous infusion of saline (vehicle control) or a class III agent was begun. All agents were administered as a continuous infusion over a 1 hour period. Measurement of heart rate, aortic blood pressure. QTc interval (as defined below), and MAPD90 were repeated at several time points during drug administration to provide dose-response relationships. QTc and MAPD90 were also monitored to insure that maximal class III effects on these parameters had been achieved.
Total accumulated dose at the first incidence of PVT was also measured. Repolarization arrhythmias were characterized as early after depolarizations and extrasystoles during repolarization which produced extrasystoles in lead II ECG. PVT was considered to have occurred if 3 or more closely coupled repetitive extrasystoles with a twisting or torsioning QRS morphology were observed.
QT intervals were corrected for heart rate changes using the formula QTc = QT/square root R-R interval. EADs were compared between treatment groups at stable monophasic action potential amplitudes (APA) and are reported as a percent of the APA.
Examples of Formula I compounds evaluated in this manner are collected in Table II. A measure of Class III antiarrhythmic activity is indicated by an increase in QTc and MAPD90. The proarrhythmic potential is indicated by the incidence and magnitude of the EADs and by the ratio of the incidence of PVT to the total number of animals tested. The corresponding data for ibutilide, a compound of U.S. Patent 5,155,268, and the racemc forms Examples (R.S) (compounds of PCT WO 91/01299) are shown for comparison.

[2] = value in parentheses in EAD column
[3] = pacing rate of 1 Hz, read-out: ERP1: percent increase in the effective refractory period over control values
[4] = pacing rate of 3 Hz, read-out: ERP3: percent increase in the effective refractory period over control values

Compound | ERP1: percent increase in the effective refractory period over control values (rabbit papillary muscle; pacing rate of 1 Hz) | ERP3: percent increase in the effective refractory period over control values (rabbit papillary muscle; pacing rate of 3 Hz) | EAD: Magnitude of the maximum early after depolarization amplitude as a percent of the monophasic action potential amplitude (APA) [1] | MAPD90: Maximum increase in the ventricular monophasic action potential duration from the methoxamine infusion baseline, measured at 90% repolarization [1] | PVT: Ratio of the number of animals that developed polymorphic ventricular tachycardia to the total number of animals evaluated [1] | QTc: Maximum increase in QTc interval from the methoxamine infusion baseline [1] | Total accumulated dose of test compound when the maximum EAD was measured [1, 2] | Total accumulated dose at the first incidence of PVT ([1]; value in parentheses in PVT) | activation at 10 µM (rabbit papillary muscle; [3]) | activation at 10 µM (rabbit papillary muscle; [4]) | Total accumulated dose at the first incidence of PVT ([1]; rabbit, in vivo) | Total accumulated dose of test compound when the maximum EAD was measured ([1]; rabbit, in vivo)
(S)-(-)-N-[4-[4-[Ethyl(6-fluoroheptyl)amino]-1-hydroxybutyl]phenyl]methanesulfonamide, (E)-2-Butenedioate (2:1 salt) [Example 2] | 30.7% | 8.7% | 0% | +88 m sec | 0/16 | +119 m sec |  |  |  |  |  | 
CCN(CCCCCC(C)(C)F)CCCC(O)c1ccc(NS(C)(=O)=O)cc1 (racemic) [(R,S) 3] |  |  | 35% | +96 m sec | 1/6 | +136 m sec | 0.25 mg/kg | 0.2 mg/kg |  |  |  | 
CCCCCCCN(CC)CCCC(O)c1ccc(NS(C)(=O)=O)cc1 (stereo not drawn) [Ibutilide, ibutilide] |  |  |  | +114 m sec |  | +95 m sec |  |  | 18% | 15.8% | 1 mg/kg | 4 mg/kg
(S)-(-)-N-[4-[4-[Ethyl(7-fluoroheptyl)amino]-1-hydroxybutyl]phenyl] methanesulfonamide, (E)-2-Butenedioate (2:1 salt) [Example 1] | 43.5% | 26.1% | 0% | +70 m sec | 0/16 | +112 m sec |  |  |  |  |  | 
CCN(CCCCCC(C)(C)F)CCC[C@H](O)c1ccc(NS(C)(=O)=O)cc1 [Example 3, (S)-(-)-N-[4-[4-[Ethyl(6-fluoro-6-methylheptyl)amino]-1-hydroxybutyl]phenyl]-methanesulfonamide] |  |  | 0% | +75 m sec | 0/16 | +82 m sec |  |  | 21.4% | 25.4% |  | 
CCN(CCCCCC(C)F)CCCC(O)c1ccc(NS(C)(=O)=O)cc1 (racemic) [(R,S) 2] |  |  | 63% | +141 m sec | 3/6 | +166 m sec | 1 mg/kg | 0.2 mg/kg |  |  |  | 
CCN(CCCCCCCF)CCCC(O)c1ccc(NS(C)(=O)=O)cc1 (racemic) [(R,S) 1] |  |  | 52% | +128 m sec | 1/6 | +143 m sec | 0.5 mg/kg | 2 mg/kg |  |  |  | 
